Consider 18 compounds from patent US9345791B2, “Ligands for targeting of S1P receptors for in vivo imaging and treatment of diseases” (Westfaelische Wilhelms-Universitaet Muenster, priority 2011, dated 2016).

Data set [1] concerns Lymphocytes (T- and B-cells). In words: Immunosuppressive activity in vivo: peripheral blood lymphopenia, flow cytometry. More on the design: species or system mice. Particulars: for B cells / CD4+ / CD8+ / WBC: intraperitoneally at 1.25 microgramm/kg body weight, blood drawn 24 hours later; for WBC: peripheral blood; for immunosuppressive action / effectiveness (in words): summary of table 1 in text. The protocol: The compounds of the invention were tested for immunosuppressive biological activity in vivo based on the known ability of S1P analogues to induce peripheral blood lymphopenia due to lymphocyte trapping in secondary lymph organs. The immunosuppressive activity of compound 21 (555558) and of compound 27 (555890) was compared with the corresponding activity a non-fluorinated analogue compound 7 (5551091), and non-ω (or close to ω)-fluorinated compounds (compounds 8 (555535) and 12 (555517)) as well as with FTY720 as a standard. The compounds were injected intraperitoneally at 1.25 microgramm/kg body weight in a total volume of 200 microliter. 24 hours later, blood was drawn from the retroorbital plexus in 17.8 mM EDTA as an anti-coagulant. Lymphocytes (T- and B-cells) were analyzed by flow cytometry as following: After lysis of red blood cells by BD Pharm Lyse (Becton Dickinson) in 50 microliter blood, cells were washed, resuspended in 100 microliter FACS buffer (1% BSA in PBS), and antibodies to CD4, CD8 and B220 (Becton Dickinson) were added (1 microliter antibody per sample each) for 30 minutes at room temperature. After 3 washes, cells were then analyzed by flow cytometry in a Gallios Beckman Coulter flow cytometer.
(In general: A flow cytometer gives signals particle by particle.)

Data set [2] relates to G-protein-coupled cell surface receptors (S1PR) designated S1P1-5. The note with it: cited from earlier work.

By Kd is commonly meant a measure of binding affinity in units of concentration. What is called melting point is the temperature of the solid-liquid transition.

Turning to `CCC/C=C(\F)CC(N)COP(=O)(O)O` (stereo not shown) [Compound B1087], in data set [1] (cell count), the B cells is 2.49 10^6/mL, the “CD4+” value is 0.42 10^6/mL and the “CD8+” value is 0.59 10^6/mL. In addition, in data set [1] (percentage), the B cells is listed as 35.20%, the “CD4+” value is given as 5.90% and the “CD8+” value is recorded as 8.40%. Also, the WBC in data set [1] is listed as 7.06 10^6/mL.

For `CCC/C=C/CC(N)COP(=O)(O)O` (stereo not shown) [Compound B1088], in data set [1] (cell count), the B cells is given as 2.76 10^6/mL, the “CD4+” value is given as 0.34 10^6/mL and the “CD8+” value is 0.49 10^6/mL. Further, in data set [1] (percentage), the B cells is 38.60%, the “CD4+” value was determined as 4.80% and the “CD8+” value worked out at 6.90%. In data set [1], the WBC was 7.15 10^6/mL.

For `CCCCCCCCCCCCC/C=C/[C@@H](O)[C@@H](N)COP(=O)(O)O` [Compound S1P, Sphingosine-1-phosphate], in data set [2], the Kd was 8 to 20 nM.

As to `CCCCCCCCc1ccc(CCC(N)(CO)CO)cc1` [FTY 720, 2-Amino-2-(4-octylphenethyl)propane-1,3-diol, reference compound], in data set [1] (cell count), the B cells is 0.61 10^6/mL, the “CD4+” value is 0.02 10^6/mL and the “CD8+” value was 0.04 10^6/mL. For the same compound, in data set [1] (percentage), the B cells is listed as 20.08%, the “CD4+” value is on record as 1.10% and the “CD8+” value came out at 0.30%. In addition, the WBC in data set [1] is 3.69 10^6/mL.

Turning to `CCC/C=C/CC(N)CO` (stereo not shown) [SSS182], in data set [1] (cell count), the B cells was 2.91 10^6/mL, the “CD4+” value is given as 0.43 10^6/mL and the “CD8+” value is on record as 0.48 10^6/mL. In data set [1] (percentage), the B cells came out at 42.20%, the “CD4+” value was 6.30% and the “CD8+” value was found to be 7.00%. In addition, in data set [1], the WBC is listed as 6.90 10^6/mL.

`CCCCCCCCCCCCCCC(F)CC(N)(CO)CO` (stereo not shown) [SSS517, 2-Amino-2-(2-fluorohexadecyl)propan-1,3-diol] showed a melting point of 96 to 98 °C. For the same compound, in data set [1] (cell count), the B cells is 4.81 10^6/mL, the “CD4+” value is reported as 0.54 10^6/mL and the “CD8+” value is 0.60 10^6/mL. Further, in data set [1] (percentage), the B cells stood at 42.40%, the “CD4+” value worked out at 4.80% and the “CD8+” value is 5.30%. In data set [1], the WBC is 11.35 10^6/mL and the “immunosuppressive action / effectiveness (in words)” value is on record as “very moderate immunosuppressive action”.

`CCCCCCCCCCCCCCCCC(N)(CO)CF` (stereo not shown) [SSS535, 2-Amino-2-(fluoromethyl)octadecan-1-ol] had a melting point of 52 °C. In data set [1] (cell count), the B cells is listed as 3.54 10^6/mL, the “CD4+” value is recorded as 0.42 10^6/mL and the “CD8+” value was 0.39 10^6/mL. Besides, in data set [1] (percentage), the B cells worked out at 50.20%, the “CD4+” value was 6.00% and the “CD8+” value is 5.50%. For the same compound, in data set [1], the WBC is on record as 7.05 10^6/mL and the “immunosuppressive action / effectiveness (in words)” value is recorded as “diminishes effectiveness”.

`NC(CO)(CO)CCCCCCCCCCCCCCCCF` [SSS558, 2-Amino-2-(16-fluorohexadecyl)propan-1,3-diol] returned a melting point of 77 °C. Moreover, in data set [1] (cell count), the B cells is recorded as 1.52 0.04 10^6/mL, the “CD4+” value was 0.15 0.08 10^6/mL and the “CD8+” value was 0.13 0.04 10^6/mL. In addition, in data set [1], the WBC was 3.74 0.70 10^6/mL.

In turn, `CCCCCCCCCCCCCCC(F)CC(N)(CO)CO.Cl` (stereo not shown) [SSS564, 2-Amino-2-(2-fluorohexadecyl)propan-1,3-diol hydrochloride] returned a melting point of 108 to 110 °C. In addition, in data set [1] (cell count), the B cells was 5.52 10^6/mL, the “CD4+” value was 0.65 10^6/mL and the “CD8+” value is reported as 0.98 10^6/mL. Also, in data set [1] (percentage), the B cells amounted to 42.20%, the “CD4+” value is recorded as 5.00% and the “CD8+” value stood at 7.50%. Besides, in data set [1], the WBC is 13.07 10^6/mL.

The compound `CCCCCCCCCCCCC/C=C/CC(N)(CO)CO` [SSS822, (E)-2-Amino-2-(hexadec-2-en-1-yl)propane-1,3-diol] yielded a melting point of 57 °C. In data set [1] (cell count), the B cells was 1.17 0.33 10^6/mL, the “CD4+” value is given as 0.10 0.01 10^6/mL and the “CD8+” value is given as 0.12 0.05 10^6/mL. Moreover, the WBC in data set [1] is reported as 5.02 1.04 10^6/mL.

Take `CN(C)c1cccc2c(S(=O)(=O)NCCCCCCCCCCCCCCCCC(N)(CO)CO)cccc12` [SSS846, N-(17-Amino-18-hydroxy-17-(hydroxymethyl)octadecyl)-5-(dimethylamino)naphthalene-1-sulfonamide]: the melting point lay in the range of 72 to 75 °C. In data set [1] (cell count), the B cells is 5.32 10^6/mL, the “CD4+” value is on record as 0.98 10^6/mL and the “CD8+” value is 0.52 10^6/mL. For the same compound, in data set [1] (percentage), the B cells came to 57.30%, the “CD4+” value is listed as 10.60% and the “CD8+” value worked out at 5.60%. In addition, in data set [1], the WBC was 9.28 10^6/mL.

Consider `CCCCCCCCCCCCC/C=C(\F)CC(N)(CO)CO` [SSS862, (Z)-2-Amino-2-(2-fluorohexadec-2-en-1-yl)propane-1,3-diol], for which the melting point lay within 68 to 70 °C. For the same compound, in data set [1] (cell count), the B cells is recorded as 3.23 10^6/mL, the “CD4+” value is 0.27 10^6/mL and the “CD8+” value is reported as 0.41 10^6/mL. Also, in data set [1] (percentage), the B cells stood at 60.90%, the “CD4+” value amounted to 5.00% and the “CD8+” value is listed as 7.80%. Further, the WBC in data set [1] was 5.31 10^6/mL.

The compound `CCCCCCCCCCCCC/C=C(/F)CC(N)(CO)CO` [SSS864, (E)-2-Amino-2-(2-fluorohexadec-2-en-1-yl)propane-1,3-diol] displayed a melting point of 74 °C. Besides, in data set [1] (cell count), the B cells is recorded as 3.41 10^6/mL, the “CD4+” value is recorded as 0.28 10^6/mL and the “CD8+” value is on record as 0.37 10^6/mL. In data set [1] (percentage), the B cells worked out at 64.70%, the “CD4+” value came to 5.40% and the “CD8+” value was 7.00%. The WBC in data set [1] is 5.27 10^6/mL.

Turning to `NC(CO)(CO)CCCCCCCCCCCCCCCF` [SSS890, 2-Amino-2-(15-fluoropentadecyl)propane-1,3-diol], the melting point is 85 °C.

Regarding `CCCCCCCCCCCCCCC(N)(CO)CO` [SSS943, 2-Amino-2-tetradecylpropane-1,3-diol], in data set [1] (cell count), the B cells is on record as 0.60 10^6/mL, the “CD4+” value was 0.04 10^6/mL and the “CD8+” value is 0.04 10^6/mL. Further, in data set [1] (percentage), the B cells is recorded as 35.21%, the “CD4+” value came out at 2.25% and the “CD8+” value was 2.35%. The WBC in data set [1] is recorded as 1.73 10^6/mL.

Regarding `CCCCCCCCCCCCCCCCC(N)(CO)CO` [SSS1091, 2-Amino-2-hexadecylpropane-1,3-diol], in data set [1] (cell count), the B cells is on record as 1.27 0.26 10^6/mL, the “CD4+” value was 0.09 0.02 10^6/mL and the “CD8+” value is 0.08 0.01 10^6/mL. Besides, the WBC in data set [1] is 4.14 0.60 10^6/mL.

The compound `CCCCCCCCc1ccc(C(O)CC(N)(CO)CO)cc1` (stereo not shown) [SSS 563, 3-Amino-3-(hydroxymethyl)-1-(4-octylphenyl)butane-1,4-diol] registered a melting point of 74 to 76 °C.

`NC(CO)(CO)CCc1ccc(CCCCCCF)cc1` [SSS 944, 2-Amino-2-(4-(6-fluorohexyl)phenethyl)propane-1,3-diol] registered a melting point of 108 °C.
